# Test results reported in patent US11731927B2, “Cocrystals of ubiquinol and compositions comprising them” (Center for Intelligent Research in Crystal Engineering, S.L., priority 2018, dated 2023).
# What was measured:
# [1] = Stability study, comparative ubiquinol vs cocrystals: storage in a chamber, periodic analysis for ubiquinone and the form detected; format: physicochemical; conditions: for stability at 25° C. measured by controlling the moment when ubiquinone was detected: "<" ubiquinone detected at least after the indicated days, ">" ubiquinone not detected yet
# Method: Powder X-Ray diffraction (PXRD) analyses were performed by sandwiching the powder samples between polyester films of 10 micrometres of thickness or polyamide (kapton) films of 15 micrometres of thickness and analysed in a PANalytical X′Pert PRO MPD q/q powder diffractometer of 240 millimetres of radius, in a configuration of convergent beam with a focalizing mirror and a flat sample transmission geometry, in the following experimental conditions: Cu Kα radiation (λ=1.5406 Å); Work power: 45 kV and 40 mA; Incident beam slits defining a beam height of 0.4 millimetres; Incident and diffracted beam 0.02 radians Soller slits; PIXcel detector: Active length=3.347°; 2θ/θ scans from 2 to 40° 2θ with a step size of 0.026° 2θ and a measuring time of 76 seconds per step.
# The stability of the different forms has been studied under two experimental conditions. The samples were stored under both conditions inside a Series FD Binder chamber and they were analyzed periodically: • condition A: 25° C. and 57% of relative humidity; • condition B: 40° C. and 75% of relative humidity.
# A saturated solution of sodium bromide salt (57% RH) and a saturated solution of sodium chloride (75% RH) were used to control relative humidity.
# 75% HR by indicating the form detected after the mentioned days. No ubiquinone was detected at least after 14 days.
# [2] = as above; format: physicochemical; conditions: relative humidity not controlled, "<" ubiquinone detected at least after the indicated days, ">" ubiquinone not detected yet
# [3] = 25° C.-57% HR, 435 days, ^1: low crystallinity
# [4] = 40° C.-75% HR, 14 days, "—^1" (footnote *): the sample absorbed moisture showing a liquid texture
# [5] = 40° C.-75% HR, 51 days, ^1: low crystallinity
Molecule,"form detected ([1]; 25° C.-57% HR, 7 days)","form detected ([1]; 25° C.-57% HR, 14 days)","form detected ([1]; 25° C.-57% HR, 51 days)","form detected ([1]; 25° C.-57% HR, 119 days)","form detected [1, 3]","form detected ([1]; 25° C.-57% HR, time 0)","form detected ([1]; 40° C.-75% HR, 7 days)","form detected [1, 4]","form detected [1, 5]","form detected ([1]; 40° C.-75% HR, time 0)",stability at 25° C. measured by controlling the moment when ubiquinone was detected [2] [days],stability at 25° C. measured by controlling the moment when ubiquinone was detected ([1]; 25° C.-57% HR) [days],also measured
"Cocrystal Hydrate of Ubiquinol and 3,4-dihydroxybenzoic Acid [P58-III]",P58-III,P58-III,P58-III,P58-III,P58-III,P58-III,P58-III,P58-III,P58-III,P58-III,–,–,"form detected ([1]; 25° C.-57% HR, 84 days): P58-III; form detected ([1]; 25° C.-57% HR, 235 days): P58-III; form detected ([1]; 25° C.-57% HR, 405 days): P58-III; form detected ([1]; 25° C.-57% HR, 551 days, ^1: low crystallinity): P58-III^1; form detected ([1]; 40° C.-75% HR, 235 days): Ubiquinone"
"COc1c(O)c(C)c(CC=C(C)CCC=C(C)CCC=C(C)CCC=C(C)CCC=C(C)CCC=C(C)CCC=C(C)CCC=C(C)CCC=C(C)CCC=C(C)C)c(O)c1OC.O=C(O)c1cccc(O)c1 [P58-VI, Cocrystal of Ubiquinol and 3-Hydroxybenzoic Acid]",P58-VI,P58-VI,P58-VI,P58-VI,P58-VI^1,P58-VI,P58-VI,P58-VI,Ubiquinone^1,P58-VI,>64,>434,"form detected ([1]; 25° C.-57% HR, 288 days): P58-VI"
Ubiquinol [reference compound],Form A,mixture Form A and Form B,–,–,–,Form A,Form B,–,–,Form A,<50,<26,"form detected ([1]; 25° C.-57% HR, 26 days): mixture Form B and Ubiquinone; form detected ([1]; 25° C.-57% HR, 37 days): mixture Form B and Ubiquinone; form detected ([1]; 25° C.-57% HR, 62 days, ^2: analyzed by 1H-NMR, confirms presence of Ubiquinone): mixture Form B and Ubiquinone^2; form detected ([1]; 25° C.-57% HR, 130 days): mixture Form B and Ubiquinone; form detected ([1]; 25° C.-57% HR, 300 days): mixture Form B and Ubiquinone; form detected ([1]; 25° C.-57% HR, 446 days): Ubiquinone (low crystallinity)"
"COc1c(O)c(C)c(CC=C(C)CCC=C(C)CCC=C(C)CCC=C(C)CCC=C(C)CCC=C(C)CCC=C(C)CCC=C(C)CCC=C(C)CCC=C(C)C)c(O)c1OC.O=C(O)c1cc(O)cc(O)c1 [P58-V, Cocrystal of Ubiquinol and 3,5-dihydroxybenzoic Acid]",–,–,–,–,–,–,–,–,–,–,–,–,stability ([1]; compared with cocrystal P58-III): expected to be similar to cocrystal P58-III
